Results: the supplement of paper PMC11061612

Experiments:
Assay in all cases: combination Emax (second highest fraction inhibited in the dose matrix, 72 h); higher = more inhibition; extreme values may be limits of the assay
[1] = tested on: NCI-H929 (Plasma Cell Myeloma)
Outline: (§1)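 Cell lines in DMEM/F12 or RPMI with 10% FBS were plated in 1536-well plates, held 24 hours at 37°C, 5% CO2, then given two-drug dose matrices for 72 hours (DMSO typically 0.2%). Viability was read by CellTiter-Glo 2.0 luminescence and scaled as inhibition from 0 (vehicle wells) to 1 (blank wells). Combination Emax is the second-highest inhibition in the matrix; Bliss excess is observed combination effect minus expected EA + EB − EA·EB, EA and EB being single-agent effects.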

[2] = tested on: NCI-H3122 (Lung Adenocarcinoma)
Outline: as §1

[3] = tested on: SK-GT-4 (Esophageal Adenocarcinoma)
Outline: as §1

[4] = tested on: IM-95 (Gastric Carcinoma)
Outline: as §1

[5] = tested on: KYSE-270 (Esophageal Squamous Cell Carcinoma)
Outline: as §1

[6] = tested on: MOG-G-CCM (Low Grade Glioma)
Outline: as §1

[7] = tested on: KY821 (Acute Myeloid Leukemia)
Outline: as §1

[8] = tested on: CW-2 (Colorectal Carcinoma)
Outline: as §1

[9] = tested on: SJSA-1 (Osteosarcoma)
Outline: as §1

[10] = tested on: DMS-114 (Small Cell Lung Carcinoma)
Outline: as §1

[11] = tested on: MN-60 (B-Lymphoblastic Leukemia)
Outline: as §1

[12] = tested on: CHSA8926 (Chondrosarcoma)
Outline: as §1

[13] = tested on: SU-DHL-5 (B-Cell Non-Hodgkin's Lymphoma)
Outline: as §1

[14] = tested on: NCI-H520 (Squamous Cell Lung Carcinoma)
Outline: as §1

[15] = tested on: COR-L279 (Small Cell Lung Carcinoma)
Outline: as §1

[16] = tested on: NCI-H661 (Non-Small Cell Lung Carcinoma)
Outline: as §1

[17] = tested on: VMRC-RCZ (Kidney Carcinoma)
Outline: as §1

[18] = tested on: KU812 (Chronic Myelogenous Leukemia)
Outline: as §1

[19] = tested on: M059J (Glioblastoma)
Outline: as §1

[20] = tested on: ST486 (Burkitt's Lymphoma)
Outline: as §1

| SMILES | combination Emax [1] | combination Emax [2] | combination Emax [3] | combination Emax [4] | combination Emax [5] | combination Emax [6] | combination Emax [7] | combination Emax [8] | combination Emax [9] | combination Emax [10] | combination Emax [11] | combination Emax [12] | combination Emax [13] | combination Emax [14] | combination Emax [15] | combination Emax [16] | combination Emax [17] | combination Emax [18] | combination Emax [19] | combination Emax [20] |
| --- | --- | --- | --- | --- | --- | --- | --- | --- | --- | --- | --- | --- | --- | --- | --- | --- | --- | --- | --- | --- |
| CC1(C)CCC(CN2CCN(c3ccc(C(=O)NS(=O)(=O)c4ccc(NCC5CCOCC5)c([N+](=O)[O-])c4)c(Oc4cnc5[nH]ccc5c4)c3)CC2)=C(c2ccc(Cl)cc2)C1 [Venetoclax] + C=CCn1c(=O)c2cnc(Nc3ccc(N4CCN(C)CC4)cc3)nc2n1-c1cccc(C(C)(C)O)n1 [AZD1775] (first compound max 1 µM, partner max 1 µM) | 0.659 | 0.734 | 0.715 | 0.299 | 0.946 | 0.688 | 1 | 0.311 | 0.453 | 0.437 | 0.305 | 0.57 | 0.986 | 0.647 | 0.746 | 0.63 | 0.467 | 0.776 | 0.713 | 0.978 |
| Cc1c2c(nn1C)CSCc1cc(n(C)n1)CSc1cc(c3ccccc3c1)OCCCc1c(C(=O)O)n(C)c3c-2c(Cl)ccc13 [AZD5991] + CCN(CCO)CCCOc1ccc2c(Nc3cc(CC(=O)Nc4cccc(F)c4)[nH]n3)ncnc2c1 [AZD2811] (first compound max 1 µM, 7x7, partner max 1 µM) | 1 | 0.918 | 0.26 | 0.875 | 0.926 | 0.41 | 1 | 0.158 | 0.292 | 0.587 | 0.206 | 0.652 | 1 | 0.599 | 0.787 | 0.686 | 0.221 | 0.851 | 0.523 | 0.976 |
| CS(=O)(=O)CCNCc1ccc(-c2ccc3ncnc(Nc4ccc(OCc5cccc(F)c5)c(Cl)c4)c3c2)o1 [Lapatinib] + C[C@@H](Oc1cc(-c2cnn(C3CCNCC3)c2)cnc1N)c1c(Cl)ccc(F)c1Cl [Crizotinib] (first compound max 10 µM, 7x7, partner max 10 µM) | 0.97 | 0.938 | 0.82 | 0.854 | 0.967 | 0.745 | 0.986 | 0.708 | 0.908 | 0.893 | 0.834 | 0.928 | 1 | 0.659 | 0.953 | 0.703 | 0.365 | 0.999 | 0.801 | 0.942 |
| C[C@@H](c1ccc2nccn2c1)n1nnc2ncc(-c3cnn(C)c3)nc21 [Savolitinib] + CC1(C)CCC(CN2CCN(c3ccc(C(=O)NS(=O)(=O)c4ccc(NCC5CCOCC5)c([N+](=O)[O-])c4)c(Oc4cnc5[nH]ccc5c4)c3)CC2)=C(c2ccc(Cl)cc2)C1 [Venetoclax] (first compound max 1 µM, 7x7, partner max 1 µM) | 0.261 | 0.153 | 0.101 | 0.333 | 0.15 | 0.204 | 0.895 | 0.117 | 0.109 | 0.299 | 0.125 | 0.29 | 0.142 | 0.138 | 0.199 | 0.115 | 0.152 | 0.245 | 0.182 | 0.118 |
| C[C@@H](c1ccc2nccn2c1)n1nnc2ncc(-c3cnn(C)c3)nc21 [Savolitinib] + Cc1c2c(nn1C)CSCc1cc(n(C)n1)CSc1cc(c3ccccc3c1)OCCCc1c(C(=O)O)n(C)c3c-2c(Cl)ccc13 [AZD5991] (first compound max 1 µM, 7x7, partner max 1 µM) | 1 | 0.188 | 0.14 | 0.732 | 0.652 | 0.212 | 1 | 0.157 | 0.265 | 0.551 | 0.114 | 0.318 | 1 | 0.208 | 0.244 | 0.491 | 0.134 | 0.708 | 0.204 | 0.483 |
| COc1cccc(OCCCN)c1-c1cc(Nc2cnc(C#N)cn2)n[nH]1 [Prexasertib] + Cc1cc2ncnn2cc1Nc1ncc2c(n1)n(C1CCOCC1)c(=O)n2C [AZD7648] (first compound max 1 µM, 7x7, partner max 10 µM) | 0.847 | 0.664 | 0.735 | 0.36 | 1 | 0.702 | 1 | 0.474 | 0.656 | 0.477 | 0.555 | 0.416 | 1 | 0.881 | 0.803 | 0.75 | 0.362 | 0.789 | 0.693 | 0.996 |
| COc1nnc2ccc(N3CCC(c4ccc(OCCN5CCN(C)C(=O)[C@H]5C)cc4)CC3)nn12 [AZD5153] + CCN(CCO)CCCOc1ccc2c(Nc3cc(CC(=O)Nc4cccc(F)c4)[nH]n3)ncnc2c1 [AZD2811] (first compound max 1 µM, 7x7, partner max 1 µM) | 0.939 | 0.668 | 0.538 | 0.336 | 0.439 | 0.571 | 1 | 0.542 | 0.64 | 0.637 | 0.74 | 0.537 | 0.999 | 0.691 | 0.907 | 0.375 | 0.367 | 0.935 | 0.751 | 0.936 |
| NC1(C(=O)N[C@@H](CCO)c2ccc(Cl)cc2)CCN(c2ncnc3[nH]ccc23)CC1 [Capivasertib] + C[C@@H]1COCCN1C2=NC(=NC(=C2)C3(CC3)[S@](=N)(=O)C)C4=C5C=CNC5=NC=C4 [AZD6738] (first compound max 10 µM, 7x7, partner max 10 µM) | 1 | 0.727 | 0.614 | 0.456 | 0.651 | 0.787 | 1 | 0.542 | 0.713 | 0.623 | 0.715 | 0.54 | 1 | 0.711 | 0.853 | 0.569 | 0.549 | 0.851 | 0.622 | 0.881 |
| COc1cc2c(cc1OCCCCCOc1cc3c(cc1OC)C(=O)N1C=C(C)C[C@H]1C=N3)N=C[C@@H]1CC(C)=CN1C2=O [SG3199] + O=C(c1cc(Cc2n[nH]c(=O)c3ccccc23)ccc1F)N1CCN(C(=O)C2CC2)CC1 [Olaparib] (first compound max 0.001 µM, 7x7, partner max 10 µM) | 0.192 | 0.172 | 0.104 | 0.0954 | 0.228 | 0.0595 | 0.101 | 0.0839 | 0.159 | 0.0991 | 0.079 | 0.355 | 0.958 | 0.118 | 0.878 | 0.133 | 0.0887 | 0.192 | 0.214 | 0.103 |
| CC1(C)CCC(CN2CCN(c3ccc(C(=O)NS(=O)(=O)c4ccc(NCC5CCOCC5)c([N+](=O)[O-])c4)c(Oc4cnc5[nH]ccc5c4)c3)CC2)=C(c2ccc(Cl)cc2)C1 [Venetoclax] + Cc1cc2ncnn2cc1Nc1ncc2c(n1)n(C1CCOCC1)c(=O)n2C [AZD7648] (first compound max 1 µM, 7x7, partner max 10 µM) | 0.812 | 0.387 | 0.374 | 0.155 | 0.675 | 0.303 | 0.956 | 0.163 | 0.291 | 0.315 | 0.299 | 0.359 | 0.687 | 0.54 | 0.372 | 0.16 | 0.112 | 0.489 | 0.279 | 0.69 |
| Cc1nc(Nc2ncc(C(=O)Nc3c(C)cccc3Cl)s2)cc(N2CCN(CCO)CC2)n1 [Dasatinib] + CC(=O)Nc1cccc(-n2c(=O)n(C3CC3)c(=O)c3c(Nc4ccc(I)cc4F)n(C)c(=O)c(C)c32)c1 [Trametinib] (first compound max 2 µM, 7x7, partner max 1 µM) | 0.992 | 0.705 | 0.791 | 0.288 | 0.603 | 0.741 | 0.691 | 0.551 | 0.522 | 0.326 | 0.27 | 0.823 | 1 | 0.233 | 0.254 | 0.502 | 0.454 | 1 | 0.492 | 0.611 |
| CC1(C)CCC(CN2CCN(c3ccc(C(=O)NS(=O)(=O)c4ccc(NCC5CCOCC5)c([N+](=O)[O-])c4)c(Oc4cnc5[nH]ccc5c4)c3)CC2)=C(c2ccc(Cl)cc2)C1 [Venetoclax] + C1CN(CCC1(C(=O)N[C@@H](CCO)C2=CC=C(C=C2)Cl)N)C3=NC=NC4=C3C=CN4 [Capivasertib] (first compound max 1 µM, 7x7, partner max 3 µM) | 0.997 | 0.362 | 0.484 | 0.398 | 0.711 | 0.348 | 1 | 0.163 | 0.31 | 0.24 | 0.293 | 0.331 | 0.915 | 0.609 | 0.418 | 0.192 | 0.206 | 0.48 | 0.396 | 0.759 |
